# Measured values taken from US20120012123A1, “COMPOSITIONS, ARTICLES AND METHODS FOR PREVENTING OR REDUCING TOBACCO-ASSOCIATED DAMAGE” (Technion Research & Development Foundation Ltd., priority 2007, published 2012).
# Tests used:
# [1] = system: H1299 human lung cancer cells; assay: H1299 cells survival after cigarette smoke (CS) exposure with/without saliva, Trypan Blue exclusion test; type: cell-based
# Description: During smoke exposure, the cells were put into a smoking sealed chamber (33.5 cm^3) with CS pressure of 0.3 Bar. Control cells were subjected to the same procedures, but exposed only to fresh air. Cells were exposed to CS for one “puffs” every 15 minute for a 2 hours (120 minutes) period (unless indicated otherwise). Cells were used when it becomes confluent and the medium (with/without saliva) volume was compatibly to the dish in use.
# The H1299 cells viability was measured at various time points by Trypan Blue exclusion test, both in exposed and control cells.
# The medium covering the dish was collected and cells were trypsinized and centrifuged at 1200×g for 10 minutes. Cell pellets were re-suspended in 1 mL of medium and a sample was collect for cell counting. Cells were stained with the vital dye Trypan Blue at final concentration of 0.25% and were placed on hemocytometer. Visual counting was preformed by inverted microscope.
# H1299 cells were incubated for 120 minutes with or without the presence of saliva in the culture medium and exposed to CS. […] Cell viability was evaluated by Trypan blue exclusion dye assay.
# p53 = assay: Total p53 expression levels, Western blot analysis; type: cell-based, human; settings: 2 mM GSH, exposure of CS 120 minutes and 33% saliva (FIG. 17)
# Description: Western blot analysis was used to assay the protein expression levels of the P53, using β-actin signal as a loading reference. Samples with equal amount of protein (20 μg protein/lane) were prepared in 2× sample buffer (0.125 M 2-amino-2-(hydroxymethyl)propane-1,3-diol (Tris)-HCl, pH 6.8, glycerol (20% v/v), SDS (4% w/v), 0.14 M β-mercaptoethanol and bromophenol blue (0.005% w/v)). The samples were boiled for 10 minutes and subjected to electrophoresis through 12% SDS-polyacrylamide gel in running buffer, or stored at −20° C. until further use. The gels were then electrophoretically transferred to nitrocellulose membranes for 90 minutes at 90 W, in transfer buffer containing 20 mM Tris-HCl, pH 6.8, 150 mM Glycine and 20% (v/v) methanol. Blots were blocked in 5% non-fat milk in PBS-T (62.5 mM sodium phosphate buffer, pH 7.4, containing 100 mM NaCl and 0.1% (v/v) Tween-20) and then incubated for 2 hours or overnight at 4° C. with rabbit antihuman p53 1:5000 or mouse antihuman β-actin 1:15000. […] Binding of antibodies to the membrane was detected with an EZ-ECL-detection reagent, X-Omat blue XB-1 Kodak scientific Imaging Film for 10 seconds-15 minutes.
# The effect of CS on p53 accumulation was analyzed. […] Western blot analysis was performed and the amount of p53 was evaluated.
# H1299 lung cells = assay: Mitochondrial oxidative damage, NAO binding to cardiolipin by flow cytometry; type: cell-based, human; settings: 5 mM agent, 120 minutes of CS exposure (FIG. 15)
# Description: (§1) For mitochondrial oxidative damage, pellets were re-suspended in 0.5 ml of 10 μg/ml 10-N-nonyl acridine orange (NAO) and incubated for 30 minutes at 37° C. and dark condition. Mitocondrial membrane potential was measured after staining cells with 1 μg/ml JC-1 (5,5′,6,6′-tetrachloro-1,1′,3,3′-tetraethylbenzimidazolyl carbocyanine iodide; Molecular Probes) for 30 minutes at 37° C. in the dark. Uncoupling with carbonyl cyanide p-trifluoromethoxyphenylhydrazone (FCCP) (20 µM for 30 minutes) was used as positive control.
# The mitochondrial quality is the amount of all the intra-cellular mitochondria and their content, and it is an important index of mitochondrial injury. Nonyl-Acridine Orange (NAO) is a fluorescent dye that can bind specifically to unoxidizable cardiolipin (CL), a mitochondrial phospholipid, independent of the mitochondria energetic state (ΔΨm). NAO lost its affinity for CL with a hydroperoxide fatty acid (CL-OOH).
# NAO flow cytometry was used to measure the quality of H1299 lung cells exposed for 120 minutes to CS with or without saliva.
# H1299 cells [2] = assay: Protein carbonyl assay (ELISA) on H1299 cells exposed to CS; type: cell-based, human; settings: 5 mM PenA
# Description: Protein carbonyl concentration was determined by enzyme-linked immunosorbent assay (ELISA), using the Zentech PC Test Kit (Zenith Technology, Dunedin, New Zealand). Briefly, protein cell extractions were allowed to react with a dinitrophenylhydrazine (DNP) solution (200 μl). The DNP-reacted proteins bound non-specifically to an ELISA plate, and the unconjugated DNP and non-protein entities were washed away. The adsorbed DNP-protein was then probed with an anti-DNP-biotin antibody, followed by a streptavidin-linked HRP probe. Then the […] reagent that contained peroxide was added to catalyze the oxidation of TMB. Finally, the reaction was stopped by the addition of a stopping reagent (acid, provided with the kit), and the absorbance was measured for each well at 450 nm using a spectrophotometer. Along with controls and samples, protein carbonyl standards were also included in the assay. The content of the carbonyl protein in the mitochondrial samples was determined as pmol/mg protein, using the standard curve.
# H1299 lung cancer cells = assay: Mitochondrial membrane potential (ΔΨm), JC-1 incorporation by flow cytometry; type: cell-based, human; settings: 5 mM agent
# Description: as §1
# Mitochondrial membrane permeabilization is an essential step leading to apoptosis. Disruption of ΔΨm irreversibly commits cells to undergo death and is an early marker of apoptosis. Furthermore, cigarette smoke was previously shown to induce mitochondrial depolarization in human monocytes. Therefore, reduced ΔΨm, as measured by diminished incorporation of the fluorescent dye JC-1, was used as an early indicator for CS-induced apoptosis.
# H1299 lung cancer calls were exposed for 120 minutes to CS with or without saliva. […] JC-1 incorporation was measured by flow cytometry method.
# [3] = system: oral cancer cells (SCC-25); assay: Oral cancer cells (SCC-25) survival after CS exposure with/without saliva, Trypan blue assay; type: cell-based; settings: 5 mM PenA, CS 120 minutes
# Excerpt: In FIG. 18A, (n=14) and (p=0.0024) and in […], (n=7) and (p=0.015).
# Similar results were obtained with oral cancer cells (SCC-25).
# H1299 cells [4] = assay: Cell viability by Propidium Iodide (PI) fluorescence, flow cytometry, after CS exposure; type: cell-based, human; settings: mean ± SD, n = 4
# Description: FACS was used to monitor cell-cycle and cell-viability after CS exposure with/without saliva presence. After cells were exposed to ROS attack, medium covering the cells was removed and cells were trypsinized. For cell viability, cell suspension was centrifuged at 1200×g for 10 minutes and the pellets were re-suspended in 0.5 ml of 10 μg/ml Propidium iodide (PI) and incubated for 15 minutes at dark condition, 4° C. The cell suspensions were thereafter analyzed with a flow cytometer, using CellQuest software. […] PI is excluded by viable cells, and penetrates to cell membranes of dead cells. H1299 cells were incubated for 120 minutes with or without the presence of saliva in the culture medium and exposed to CS. […] Cell viability was evaluated by fluorescence assay.
smiles,measurement,setting,value
"CC(=O)N(O)CCCCCNC(=O)CCC(=O)N(O)CCCCCNC(=O)CCC(=O)N(O)CCCCCN [DES, deferoxamine]",cellular death rate,"[1]; 5 mM DES, CS 120 minutes and saliva (FIG. 12)",20.5%
"N[C@@H](CCC(=O)N[C@@H](CS)C(=O)NCC(=O)O)C(=O)O [GSH, L-c-glutamyl-L-cysteinyl-glycine]",prevention of p53 downregulation (in words),p53,totally preventing
same,protection of cell survival (in words),"[1]; 2 mM GSH, CS exposure alone, no saliva",no additional protection
same,increase of cell survival,"[1]; 2 mM GSH, CS exposure, saliva-containing medium (30% v/v) (FIG. 9)",more than 50%
"CC(C)(S)[C@@H](N)C(=O)O [PenA, D-penicillamine]",amount of NAO bound to mitochondrial CL (in words),H1299 lung cells,the same
same,protein carbonyl content,H1299 cells [2]; CS 60 minutes and saliva (FIG. 11),4.02 nmol/mg protein
same,protein carbonyl content,"H1299 cells [2]; CS 60 minutes, medium alone (FIG. 11)",4.45 nmol/mg protein
same,protection against ΔΨm losses (in words),"H1299 lung cancer cells; CS 120 minutes alone, no saliva (FIG. 14)",strong protection
same,protection against ΔΨm losses (in words),H1299 lung cancer cells; CS 120 minutes and 33% saliva (FIG. 14),no significant change
same,survival loss,[3]; absence of saliva (FIG. 18A),23%
same,survival loss,[3]; saliva added to medium (FIG. 18B),22%
same,Positive dead cells (%),H1299 cells [4]; CS 120 minutes + 5 mM PenA + saliva,2.33%
same,Positive dead cells (%),"H1299 cells [4]; CS 120 minutes + 5 mM PenA, no saliva",2.98%
same,Positive dead cells (%),"H1299 cells [4]; Medium + 5 mM PenA + saliva, no CS",4.15%
same,Positive dead cells (%),"H1299 cells [4]; Medium + 5 mM PenA, no CS, no saliva",3.75%
same,"effect on survival rate, 1 mM versus 5 mM (in words)","[1]; 1 mM and 5 mM PenA, CS exposure, medium or medium + 30% saliva (FIG. 7)",dose-dependent effect
same,reduction of cells loss,"[1]; 5 mM PenA, 120 minutes of exposure to CS, medium without saliva",25%
same,survival rate,"[1]; 5 mM PenA, CS 120 minutes, medium + 30% saliva (FIG. 7)",76.4%
same,survival rate,"[1]; 5 mM PenA, CS 120 minutes, medium alone, no saliva (FIG. 7)",75.5%
same,reduction of cells loss (in words),"[1]; 5 mM PenA, saliva supplemented to the medium prior to exposure to CS",Reduction of cells loss was also observed
same,increase of cells survival,"[1]; PenA, CS 120 minutes, medium alone, percent of control (FIG. 6A)",12%
same,increase of cell survival,"[1]; PenA, CS 120 minutes, saliva-containing medium (30% v/v), percent of control (FIG. 6A)",20%
